From patent US5773263A, “Production aflastatin A from streptomyces sp., a pharmaceutical composition and methods of use” (Morinaga & Co., Ltd., priority 1996, dated 1998)
Converted amounts (≈) assume the structure as drawn. “And” between values parts separate entries of the source, which are not always exact repeats. Equal values may be shown once.

How the values were obtained:
[1] = test system: Bacillus subtilis IAM 1145; experiment: Antimicrobial spectrum, agar dilution MIC; format: cell-based; settings: medium A, 37 °C, 24 hrs
Method: (§1) Conditions for the measurements of the antimicrobial sepctra are as follows:
(§2) 80 mg of aflastatin A was dissolved in 4 ml of dimethyl sulfoxide (DMSO). This solution was diluted with DMSO to prepare a dilution series by two times as test solutions. The test solutions were filtrated with a filter and sterilized. 50 μl of each of them was added to 10 ml of a sterilized agar medium at 60° C. to prepare a dilution series of agar media. To each of the agar media, test strains were inoculated for antimicrobial activity. Media used for the tests are as follows:
(§3) A: Nutrient agar (manufactured by Nihon Suisan K.K.)

[2] = test system: Escherichia coli IFO 14249; experiment: Antimicrobial spectrum, agar dilution MIC; format: cell-based; settings: medium A, 37 °C, 24 hrs
Method: as §1, §2, §3

[3] = test system: Psuedomonas aeruginosa IAM 1514; experiment: Antimicrobial spectrum, agar dilution MIC; format: cell-based; settings: medium A, 37 °C, 24 hrs
Method: as §1, §2, §3

[4] = test system: Staphylococcus aureus IFO 13276; experiment: Antimicrobial spectrum, agar dilution MIC; format: cell-based; settings: medium A, 37 °C, 24 hrs
Method: as §1, §2, §3

[5] = test system: Candida albicans IFO 1594; experiment: Antimicrobial spectrum, agar dilution MIC; format: cell-based; settings: medium C, 30 °C, 48 hrs
Method: as §1, §2
(§4) C: Sabouraud agar (manufactured by Nihon Suisan K.K.)

[6] = test system: Saccharomyces cerevisiae IFO 0250; experiment: Antimicrobial spectrum, agar dilution MIC; format: cell-based; settings: medium C, 30 °C, 48 hrs
Method: as §1, §2, §4

[7] = test system: Trichophyton mentagrophytes IFO 5809; experiment: Antimicrobial spectrum, agar dilution MIC; format: cell-based; settings: medium C, 30 °C, 48 hrs
[8] = test system: Fusarium graminearum ATCC 34909; format: cell-based
[9] = test system: Aspergillus parasiticus NRRL 2999; experiment: Antimicrobial spectrum, agar dilution MIC; format: cell-based; settings: medium B, 27 °C, 48 hrs
Method: as §1, §2
B: Potato dextrose agar (manufactured by Nihon Suisan K.K.)

[10] = test system: Pyricularia oryzae IFO 30732; format: cell-based
Solubility = format: physicochemical
ddy series male mice = experiment: Toxicity, single administration to mice; format: in vivo
Method: Aflastatin A was suspended in a 0.25% carboxymethylcellulose solution and the suspension was administered to ddy series male mice. […] By single oral administration, no mice died in an administered amount of 1,000 mg/kg or less.

[11] = test system: Aspergillus parasiticus NRRL 2999; format: cell-based
[12] = test system: Aspergillus parasiticus NRRL 2999; design: key: -: no growth; +: growth delayed; ++: fine growth; settings: in vivo
adenocarcinoma 755 = experiment: Antitumor activity, subcutaneously transplanted adenocarcinoma 755 in BDFI mice; format: in vivo, mouse; settings: for Antitumor activity / Weight of tumor: four successive days, day 14; for Antitumor activity: control 100.0; for Weight of tumor: mean ± SD of six mice, control 1617.8 ± 179.07
Method: BDFI mice having a weight of from 21.0 to 24.3 g were divided into four groups each being 6 mice. A physiological saline suspension of adenocarcinoma 755 cells collected from subcultured 11th day mouse and adjusted, was transplanted subcutaneously at a right ventral portion of each mouse at a rate of 5×10^5 cells/0.5 ml/mouse.
The day of transplantation was regarded as the day 0. From the next day, intraperitoneal administration was carried out once a day for four successive days to each group at a rate of aflastatin A administration of 0.3 mg/kg/day, 1 mg/kg/day, or 3 mg/kg/day. The aflastatin A was suspended in a 0.25% carboxymethyl cellulose solution (manufactured by Nakarai Tesk) and administered at a dose of 10 ml/kg. The rest of the four groups was used as a control.
By the day 14, general conditions were observed every day, and the mice were clubbed to death at the day 14. Solid tumors were collected and their wet weights were measured. From the measured tumor weights, inhibitory ratios against the control group were calculated and antitumor activities were determined. The tumor weight is represented by an average of six mice±standard deviation.

Structure (SMILES): CCCCCCCCCC(O)C[C@]1(O)O[C@H](CC(O)C(O)C(O)C(O)C(O)CC(O)CC(O)CC(O)C(C)C(O)C(C)C(O)CC(O)C(C)C(O)C(C)C(O)C(C)C(O)C(O)CC(C)CC(C)/C=C(C)/C(O)=C2/C(=O)C(C)N(C)C2=O)[C@@H](O)[C@H](O)[C@@H]1O (stereo partly drawn) [aflastatin A]
- MIC [1]: 0.39 µg/mL (≈ 0.31 µM)
- MIC [2]: > 100 µg/mL
- MIC [3]: > 100 µg/mL
- MIC [4]: 0.78 µg/mL (≈ 0.62 µM)
- MIC [5]: 0.39 µg/mL (≈ 0.31 µM)
- MIC [6]: < 0.19 µg/mL
- MIC [7]: 0.39 µg/mL (≈ 0.31 µM)
- MIC [8]: > 100 µg/mL
- MIC [9]: > 100 µg/mL
- MIC [10]: > 0.19 µg/mL
- Solubility (Solubility; aqueous butanol): slightly soluble
- Solubility (Solubility; aqueous ethanol): slightly soluble
- Solubility (Solubility; dimethyl sulfoxide): Soluble
- Solubility (Solubility; glycerol): slightly soluble
- Solubility (Solubility; methanol): slightly soluble
- Solubility (Solubility; other organic solvents): practically insoluble
- Solubility (Solubility; water): practically insoluble
- LD50 (ddy series male mice; single intraperitoneal administration, suspended in 0.25% carboxymethylcellulose): 6.17 mg/kg
- Mortality (ddy series male mice; single oral administration, 1,000 mg/kg or less): no mice died
- Colony diameter [11]: 7.8 ± 0.2 cm and 6.5 ± 0.2 cm and 5.5 ± 0.3 cm
- Growth of strains [12]: ++
- Antitumor activity (adenocarcinoma 755; 0.3 mg/kg/day i.p.): 42.0%
- Weight of tumor (adenocarcinoma 755; 0.3 mg/kg/day i.p.): 680.2 ± 176.63 mg
- Antitumor activity (adenocarcinoma 755; 1 mg/kg/day i.p.): 24.3%
- Weight of tumor (adenocarcinoma 755; 1 mg/kg/day i.p.): 392.8 ± 87.07 mg
- Dose assessment (adenocarcinoma 755; 3 mg/kg/day i.p.): overdose
- Mortality (printed in the column weight of tumor) (adenocarcinoma 755; 3 mg/kg/day i.p.): All mice died by the day 3
